Experimental data: ChEMBL document CHEMBL5136972, “Targeting SARS-CoV-2 Proteases and Polymerase for COVID-19 Treatment: State of the Art and Future Opportunities” (J Med Chem, 2022)

How the values were obtained:
[1] = target: T1, Replicase polyprotein 1ab (Severe acute respiratory syndrome coronavirus 2, UniProt P0DTD1); experiment: Inhibition of SARS CoV-2 PL protease
SARS-CoV-2 [2] = experiment: Antiviral activity against SARS CoV-2 infected in African green monkey Vero cells assessed as inhibition of plaque formation by viral plaque assay; assay type: functional, organism-based; conditions: Severe acute respiratory syndrome coronavirus 2, Vero
[3] = target: T1, Replicase polyprotein 1ab; experiment: Inhibition of N-terminal recombinant SARS CoV 2 3CL protease expressed in Escherichia coli BL21-DE3 cells using MCA-AVLQSGFR-Lys(Dnp)-Lys-NH2 as substrate by FRET assay
[4] = Cytotoxicity against African green monkey Vero E6 cells by CCK-8 assay; assay type: toxicity, cell-based, Vero C1008; conditions: chlorocebus sabaeus
[5] = Half life in CD-1 mouse at 5 mg/kg, iv measured after up to 24 hrs by LC-MS/MS analysis; assay type: ADME, organism-based; conditions: in vivo
[6] = Clearance in CD-1 mouse at 5 mg/kg, iv measured after up to 24 hrs by LC-MS/MS analysis; assay type: ADME, organism-based; conditions: in vivo
[7] = Cmax in CD-1 mouse at 5 mg/kg, iv measured after up to 24 hrs by LC-MS/MS analysis; assay type: ADME, organism-based; parameters: dose 5 mg/kg, time < 24 hrs, route iv; conditions: in vivo
[8] = Bioavailability in CD-1 mouse at 5 mg/kg, iv measured after up to 24 hrs by LC-MS/MS analysis; assay type: ADME, organism-based; conditions: in vivo
[9] = Half life in Sprague-Dawley rat at 10 mg/kg, iv measured after up to 24 hrs by LC-MS/MS analysis; assay type: ADME, organism-based; conditions: in vivo
[10] = Half life in Beagle dog at 5 mg/kg, iv measured after up to 24 hrs by LC-MS/MS analysis; assay type: ADME, organism-based, Canis lupus familiaris; conditions: in vivo
[11] = Clearance in Sprague-Dawley rat at 10 mg/kg, iv measured after up to 24 hrs by LC-MS/MS analysis; assay type: ADME, organism-based; conditions: in vivo
[12] = Clearance in Beagle dog at 5 mg/kg, iv measured after up to 24 hrs by LC-MS/MS analysis; assay type: ADME, organism-based, Canis lupus familiaris; conditions: in vivo
[13] = AUClast in Sprague-Dawley rat at 10 mg/kg, iv measured after up to 24 hrs by LC-MS/MS analysis; assay type: ADME, organism-based; parameters: time < 24 hrs, dose 10 mg/kg, route iv; conditions: in vivo
[14] = AUClast in Beagle dog at 5 mg/kg, iv measured after up to 24 hrs by LC-MS/MS analysis; assay type: ADME, organism-based, Canis lupus familiaris; parameters: time < 24 hrs, dose 5 mg/kg, route iv; conditions: in vivo
[15] = target: T1, Replicase polyprotein 1ab; experiment: Inhibition of C-terminal 6-His-tagged recombinant SARS CoV-2 3CL protease expressed in Escherichia coli BL21-Gold DE3 cells by FRET assay
SARS-CoV-2 [16] = experiment: Antiviral activity against SARS CoV-2 infected in human Calu-3 cells measured after 24 hrs by qRT-PCR analysis; assay type: functional, organism-based; conditions: Severe acute respiratory syndrome coronavirus 2, Calu-3, 24 h
[17] = Cytotoxicity against African green monkey Vero E6 cells incubated for 3 hrs by CCK-8 assay; assay type: toxicity, cell-based, Vero C1008; conditions: chlorocebus sabaeus
SARS-CoV-2 [18] = experiment: Antiviral activity against SARS CoV-2 clinical isolate 2019-nCoV/USA-WA1/2020 infected in African green monkey Vero E6 cells incubated for 48 hrs by CellTiter-Glo assay; assay type: functional, organism-based; conditions: Severe acute respiratory syndrome coronavirus 2, 2019-nCoV/USA-WA1/2020, Vero C1008, 48 h
[19] = Cytotoxicity against African green monkey Vero E6 cells infected with SARS CoV-2 clinical isolate 2019-nCoV/USA-WA1/2020 incubated for 48 hrs by CellTiter-Glo assay; assay type: toxicity, cell-based, Vero C1008; conditions: chlorocebus sabaeus
SARS-CoV-2 [20] = experiment: Antiviral activity against SARS CoV-2 clinical isolate 2019-nCoV/USA-WA1/2020 infected in human Calu-3 cells measured after 72 hrs by plaque assay; assay type: functional, organism-based; conditions: Severe acute respiratory syndrome coronavirus 2, 2019-nCoV/USA-WA1/2020, Calu-3, 72 h
[21] = Oral bioavailability in CD1 mouse at 50 mg/kg administered as single dose by LC-MS/MS analysis; assay type: ADME, organism-based; conditions: in vivo
[22] = Oral bioavailability in CD1 mouse at 150 mg/kg administered as single dose by LC-MS/MS analysis; assay type: ADME, organism-based; conditions: in vivo
[23] = Oral bioavailability in CD1 mouse at 500 mg/kg administered as single dose by LC-MS/MS analysis; assay type: ADME, organism-based; conditions: in vivo
[24] = Half life in CD1 mouse at 50 mg/kg, po administered as single dose by LC-MS/MS analysis; assay type: ADME, organism-based; conditions: in vivo
[25] = Half life in CD1 mouse at 150 mg/kg, po administered as single dose by LC-MS/MS analysis; assay type: ADME, organism-based; conditions: in vivo
[26] = Half life in CD1 mouse at 500 mg/kg, po administered as single dose by LC-MS/MS analysis; assay type: ADME, organism-based; conditions: in vivo
[27] = Drug distribution in CD1 mouse liver at 150 to 500 mg/kg, po measured after 8 hrs by LC-MS/MS analysis; assay type: ADME, organism-based; conditions: in vivo, dose 150-500 mg/kg
SARS-CoV = experiment: Antiviral activity against […] infected in HAE cells incubated for 48 hrs by qRT-PCR analysis; assay type: functional, organism-based
[28] = test system: Middle East respiratory syndrome-related coronavirus; experiment: Antiviral activity against […] infected in HAE cells incubated for 48 hrs by qRT-PCR analysis; assay type: functional, organism-based

CC(=O)N[C@@H](CCc1nc2ccccc2s1)C(=O)N[C@@H](CN)C(=O)NCC(=O)NC/C=C/C(=O)O
IC50 [1]: 10 µM

CC(=O)N[C@@H](CCc1ccc(O)cc1)C(=O)N[C@@H](CN)C(=O)NCC(=O)NC/C=C/C(=O)O
IC50 [1]: 10 µM

O=C[C@H](C[C@@H]1CCNC1=O)NC(=O)[C@H](CC1CC1)NC(=O)c1cc2ccccc2[nH]1
EC50 (SARS-CoV-2 [2]): 520 nM
IC50 [3]: 53 nM
CC50 [4]: > 100 µM
half-life [5]: 264 min
clearance [6]: 17 mL/min/kg
Cmax [7]: > 2360 ng/mL
bioavailability [8]: > 85%
half-life [9]: 456 min
half-life [10]: 330 min
clearance [11]: 4.01 mL/min/kg
clearance [12]: 5.8 mL/min/kg
AUC(0-t) at 24 h [13]: 41500 ng·h/mL
AUC(0-t) at 24 h [14]: 14900 ng·h/mL

Nc1cccn([C@@H](CC2CC2)C(=O)N[C@@H](C[C@@H]2CCNC2=O)C(=O)C(=O)NCc2ccccc2)c1=O
IC50 [15]: 1340 nM
EC50 (SARS-CoV-2 [16]): > 40 µM

O=c1cc(-c2ccccc2)oc2cc(O)c(O)c(O)c12 [BAICALEIN]
CC50 at 3 h [17]: > 200 µM

O=C(O)[C@H]1O[C@@H](Oc2cc3oc(-c4ccccc4)cc(=O)c3c(O)c2O)[C@H](O)[C@@H](O)[C@@H]1O [BAICALIN]
CC50 at 3 h [17]: > 200 µM

O=c1nc(NO)ccn1[C@@H]1O[C@H](CO)[C@@H](O)[C@H]1O [N-HYDROXYCYTIDINE]
EC50 (SARS-CoV-2 [18]): 300 nM
CC50 at 48 h [19]: > 10 µM
EC50 (SARS-CoV-2 [20]): 80 nM
bioavailability [21]: 56%
bioavailability [22]: 43%
bioavailability [23]: 36%
half-life [24]: 312 min
half-life [25]: 192 min
half-life [26]: 162 min
Drug uptake [27]: 10 nmol/g
EC50 (SARS-CoV): 140 nM
EC50 [28]: 24 nM
